Measured values from ChEMBL document CHEMBL1177878, “Synthesis and hypolipidemic activity of novel 2-(4-(2-substituted aminothiazole-4-yl) phenoxy) acetic acid derivatives” (Eur J Med Chem, 2010).

Key:
Rattus norvegicus [1] = experiment: Antihyperlipidemic activity in high fat diet-induced hyperlipidemic Sprague-Dawley rat model assessed as reduction of body weight at 50 mg/kg, po for 7 days; assay type: functional
Rattus norvegicus [2] = experiment: Antihyperlipidemic activity in high fat diet-induced hyperlipidemic Sprague-Dawley rat model assessed as reduction of body circumference at 50 mg/kg, po for 7 days; assay type: functional
Rattus norvegicus [3] = experiment: Toxicity in high fat diet-induced hyperlipidemic Sprague-Dawley rat model assessed as increase of locomotor activity at 50 mg/kg, po for 7 days measured for 5 mins; assay type: organism-based; parameters: dose 50 mg/kg, route oral; settings: in vivo
Rattus norvegicus [4] = experiment: Antihyperlipidemic activity in high fat diet-induced hyperlipidemic Sprague-Dawley rat model assessed as reduction of blood cholesterol level at 50 mg/kg, po for 7 days (reference value: 128.8 +/- 1.20 mg/dl); assay type: functional
Rattus norvegicus [5] = experiment: Antihyperlipidemic activity in high fat diet-induced hyperlipidemic Sprague-Dawley rat model assessed as reduction of blood triglyceride level at 50 mg/kg, po for 7 days (reference value: 142.4 +/- 1.53 mg/dl); assay type: functional
Rattus norvegicus [6] = experiment: Antihyperlipidemic activity in high fat diet-induced hyperlipidemic Sprague-Dawley rat model assessed as reduction of blood LDL level at 50 mg/kg, po for 7 days (reference value: 51.8 +/- 2.03 mg/dl); assay type: functional
Rattus norvegicus [7] = experiment: Antihyperlipidemic activity in high fat diet-induced hyperlipidemic Sprague-Dawley rat model assessed as increase of blood HDL level at 50 mg/kg, po for 7 days (reference value: 18.6 +/- 1.36 mg/dl); assay type: functional
Rattus norvegicus [8] = experiment: Antihyperlipidemic activity in high fat diet-induced hyperlipidemic Sprague-Dawley rat model assessed as reduction of blood VLDL level at 50 mg/kg, po for 7 days (reference value: 26.2 +/- 1.20 mg/dl); assay type: functional
Rattus norvegicus [9] = experiment: Antihyperlipidemic activity in high fat diet-induced hyperlipidemic Sprague-Dawley rat model assessed as reduction of body weight at 250 mg/kg, po for 7 days; assay type: functional
Rattus norvegicus [10] = experiment: Antihyperlipidemic activity in high fat diet-induced hyperlipidemic Sprague-Dawley rat model assessed as reduction of body circumference at 250 mg/kg, po for 7 days; assay type: functional
Rattus norvegicus [11] = experiment: Toxicity in high fat diet-induced hyperlipidemic Sprague-Dawley rat model assessed as increase of locomotor activity at 250 mg/kg, po for 7 days measured for 5 mins; assay type: organism-based; parameters: dose 250 mg/kg, route oral; settings: in vivo
Rattus norvegicus [12] = experiment: Antihyperlipidemic activity in high fat diet-induced hyperlipidemic Sprague-Dawley rat model assessed as reduction of blood cholesterol level at 250 mg/kg, po for 7 days (reference value: 128.8 +/- 1.20 mg/dl); assay type: functional
Rattus norvegicus [13] = experiment: Antihyperlipidemic activity in high fat diet-induced hyperlipidemic Sprague-Dawley rat model assessed as reduction of blood triglyceride level at 250 mg/kg, po for 7 days (reference value: 142.4 +/- 1.53 mg/dl); assay type: functional
Rattus norvegicus [14] = experiment: Antihyperlipidemic activity in high fat diet-induced hyperlipidemic Sprague-Dawley rat model assessed as reduction of blood LDL level at 250 mg/kg, po for 7 days (reference value: 51.8 +/- 2.03 mg/dl); assay type: functional
Rattus norvegicus [15] = experiment: Antihyperlipidemic activity in high fat diet-induced hyperlipidemic Sprague-Dawley rat model assessed as increase of blood HDL level at 250 mg/kg, po for 7 days (reference value: 18.6 +/- 1.36 mg/dl); assay type: functional

SMILES	Activity (Rattus norvegicus [1]) [g]	Activity (Rattus norvegicus [2]) [cm]	Activity (Rattus norvegicus [3])	Activity (Rattus norvegicus [4]) [mg/dL]	Activity (Rattus norvegicus [5]) [mg/dL]	Activity (Rattus norvegicus [6]) [mg/dL]	Activity (Rattus norvegicus [7]) [mg/dL]	Activity (Rattus norvegicus [8]) [mg/dL]	Activity (Rattus norvegicus [9]) [g]	Activity (Rattus norvegicus [10]) [cm]	Activity (Rattus norvegicus [11])	Activity (Rattus norvegicus [12]) [mg/dL]	Activity (Rattus norvegicus [13]) [mg/dL]	Activity (Rattus norvegicus [14]) [mg/dL]	Activity (Rattus norvegicus [15]) [mg/dL]
Nc1ccc(C(=O)CNc2nc(-c3ccc(OCC(=O)O)cc3)cs2)cc1	237.333	12	Toxic	77.6	110.4	36.8	27	26.2	–	–	–	–	–	–	–
CC(=O)Nc1nc(-c2ccc(OCC(=O)O)cc2)cs1	250.833	12.516	Non-toxic	104	107.6	51.4	31.8	22.6	–	–	–	–	–	–	–
O=C(O)COc1ccc(-c2csc(NC(=O)c3ccccc3)n2)cc1	239.666	13.1	Toxic	89.2	114.6	34.2	28.4	25	–	–	–	–	–	–	–
CCC(=O)Nc1nc(-c2ccc(OCC(=O)O)cc2)cs1	224.166	10.483	Toxic	86.6	103.6	33	30.4	21	–	–	–	–	–	–	–
O=C(O)COc1ccc(-c2csc(NC(=O)CCl)n2)cc1	230.666	9.5	Toxic	92	118.4	34.8	34.4	28	–	–	–	–	–	–	–
O=C(O)COc1ccc(-c2csc(NCc3ccccc3)n2)cc1	248.5	13.066	Toxic	122.2	140.2	53.8	20.2	22.4	–	–	–	–	–	–	–
O=C(O)COc1ccc(-c2csc(NCC(=O)c3ccc(Cl)cc3)n2)cc1	220.5	12.35	Toxic	119.2	136.6	50	18.6	27.2	–	–	–	–	–	–	–
O=C(O)COc1ccc(-c2csc(NCC(=O)c3ccc([N+](=O)[O-])cc3)n2)cc1	258.166	12.85	Non-toxic	106.8	122.8	43.2	24.6	20.2	–	–	–	–	–	–	–
CC(C)OC(=O)C(C)(C)Oc1ccc(C(=O)c2ccc(Cl)cc2)cc1 [FENOFIBRATE]	–	–	–	–	–	–	–	–	229.666	9.5	Toxic	83.2	91.6	37.2	28.4
